Tests used:
[1] = target: T1, wild type transthyretin (WT-TTR) (Homo sapiens, UniProt P02766); assay: WT-TTR amyloid fibril formation assay (turbidimetry, acid-induced); type: biochemical; details: pH 4.4, 72 hours
T1 construct: made in house; host or cells: E. coli BL21 (DE3), pET23a plasmid
Protocol: (§1) The first set of evaluations is based on a fast, stagnant fibril formation assay that is used for the early screening of compounds, be they virtual screening hits or newly synthesized analogues. In this assay, a solution of the compound under test at 1.8, 3.6 or 7.2 μM is added to a solution of TTR at 3.6 μM, so that there is enough compound to bind to either one or both of TTR's binding sites. The pH of the resulting solution is then lowered to 4.4 to promote amyloidogenesis. The process of amyloid fibril formation over time is assessed by turbidimetry measurements at three different wavelengths (405, 450 and 490 nm, or at 550, 600 and 650 nm when the compound absorbs light at the previous wavelengths), using a spectrophotometer endowed with a BioTek microplate reader. The extent of fibril formation of each mixture is determined by normalizing a sample with the protein (TTR), in absence of compounds, which, at the end of 72 hours, represents 100% of amyloid fibril formation. In each experiment, each compound concentration is tested in triplicate. For each compound concentration and incubation time, the arithmetic mean of the triplicate experiments is calculated, as well as the arithmetic mean of the three measured wavelengths. High activity can be defined as a percentage of fibril formation below 10% at compound concentration 7.2 μM (TTR:compound stoichiometry 1:2) and below 40% at 3.6 μM (TTR:compound stoichiometry 1:1).
The in vitro activity of the compounds was assessed through a biochemical assay based on turbidimetry measurements, in which fibril formation is induced by acidification of the solution to pH 4.4 after incubation with the hit compound to be tested. The amount of amyloid fibrils formed is then monitored throughout 72 hours. Further details on this assay are provided in the “Evaluation of amyloid inhibition in vitro” subsection in “Materials and Methods”.
Experimental evaluation of the in vitro activity of virtual screening hits against amyloid fibril formation by TTR was carried out using a biochemical assay based on turbidimetry measurements. In this assay, fibril formation is induced by acidification of the solution to pH 4.4 after incubation with the hit compound to be tested. The amount of amyloid fibrils formed is monitored over 72 hours. Further details on the assay are provided in the “Evaluation of amyloid inhibition in vitro” subsection below.
(§2) Purchased virtual screening hits and all synthesized (optimization) derivatives were dissolved in DMSO to a final concentration of 10.8 mM to provide a primary stock solution. Several secondary stock solutions were prepared in DMSO by dilution of the primary stock solution and the concentrations were chosen depending on the effectiveness of the compound in inhibiting the TTR amyloid fibril formation.
(§3) The fibril formation assay was adapted to run in a high-throughput screening mode. For this purpose, 96-well microplates were used with a final assay volume of 100 μL.
(§4) One microLitre (μL) of different compound secondary stock solutions was added to 50 μL of a 7.2 μM wild type TTR (WT-TTR) or Val122Ile-TTR (V122I-TTR) solutions in 10 miliMolar (mM) sodium phosphate buffer, 100 mM KCl and 1 mM EDTA, pH 7.2, previously dialyzed against the same buffer solution. After 30 minutes of incubation at room temperature, the pH of the mixture was lowered to 4.4 with 49 μL of 200 mM acetate buffer, 100 mM KCl and 1 mM EDTA, pH 4.3.
(§5) The mixtures were incubated at 37° C. during 72 hours. Turbidity at 405 nm, 450 nm and 490 nm (or at 550, 600 and 650 nm when the test compound absorbs light at the previous wavelengths) was measured over time (0, 17, 24, 41, 48, 65 and 72 hours) using a BioTek Microplate Spectrophotometer to evaluate the extent of fibril formation. Immediately before the turbidity measurements, the mixtures were gently shacked during 1 minute to homogenize well and not damage the formed amyloid aggregates and fibrils.

[2] = target: Val122Ile transthyretin (V122I-TTR) (Homo sapiens, UniProt P02766, V142I); assay: V122I-TTR amyloid fibril formation assay (turbidimetry, acid-induced); type: biochemical; details: pH 4.4, 72 hours
Protocol: as §1, §2, §3, §4
as §5, with “fibrils. The final turbidity was calculated as an average of the three wavelengths measured.” for “fibrils.”
In addition, control samples containing TTR with no inhibitor and 1% DMSO, as well as inhibitor in absence of TTR were tested and analyzed.
The extent of amyloid fibril formation data was normalized to TTR in the absence of inhibitor, assigned to be 100% fibril formation (or 0% amyloid inhibition) at the end of the experiment.
The extent of amyloid fibril formation throughout 72 hours was determined as described in the “Evaluation of amyloid inhibition in vitro” subsection above.
IC50 values were calculated from the inhibition curves obtained by fitting the values by a nonlinear curve method using the OriginPro7 (OriginLab Corporation, USA).

[3] = HepG2 cell viability, resazurin reduction assay; type: cell-based; details: human, HepG2 hepatoma cells, approximately 72 hours incubation, read-out: inhibitory dose (ID50), cell viability
Source text: Cell viability of HepG2 hepatoma cells was quantified in order to assess the toxicity of the compounds at increasing concentrations. The used assay is described in detail in the “Experimental Evaluation of Cytotoxicity of Compounds using Cell-based Assays” section in “Materials and Methods”. This is a relevant assessment not just to discard potential concerns of liver damage (which is a problem reported for many drugs) but also because of the long-term nature of the treatments that patients suffering from TTR-mediated amyloidoses need to undertake.
Adherent human hepatoma cells HepG2 were cultured in DMEM (Dulbecco's Modified Eagle's Medium) with 10% fetal bovine serum (FBS), 100 U/mL penicillin, […] streptomycin, and 1 mM sodium pyruvate. The cells were grown in 75 cm^2 culture flasks at 37° C., in an atmosphere of 5% CO2, and subcultured twice a week using a trypsin-EDTA solution.
Upon 3 to 4 days of growth and reaching approximately 90% confluence, HepG2 cells were plated in 96-well microplates with cell density of 12×10^3 cells/well and in a volume of 100 μL per well.
The compounds are dissolved in DMSO and subsequently diluted in DMEM (in 9 intermediate […] concentrations). After adhesion of HepG2 cells to the microplates, […] 100 μL of each solution of intermediate compound concentration were added to each well (in quadruplicate). Positive controls were done with 10 wells containing only cells; solvent controls resulted from the analysis of the three highest DMSO concentrations tested and were carried out in triplicate.
After addition of the compounds to the cells, the microplates were incubated for approximately 72 hours at 37° C. in an atmosphere of 5% CO2 until the cell viability assay was performed.
The cell viability of HepG2 cells in the presence of test compounds was assessed by the resazurin reduction assay. Resazurin is a redox indicator that is converted into resorufin through reduction reactions of metabolically active cells. In the oxidized form it presents a purplish blue color, while the reduced form presents a purple-pink color.
A stock solution of 0.01% resazurin in PBS is diluted 1:10 in incomplete RPMI 1640 cell medium (without addition of antibiotics and FBS). After washing the cells with 200 μL PBS containing Ca^2+ and Mg^2+, 200 μL of resazurin 0.001% are added to the wells. Control runs with incomplete RPMI 1640 medium only and (without cells) are done in triplicate. […]
To quantify the reduction of resazurin to resorufin, microplate absorbance readings were taken at two wavelengths, 540 nm (reduced form) and 630 nm (oxidized form), in a Biotek spectrophotometer microplate reader. The percentage of viable cells at each compound concentration is determined using the formula: […]

[4] = system: AD/TTR+/− mice; details: cited from earlier work
[5] = system: FAP patients; details: 18-month phase-III clinical trial; cited from earlier work

O=C(O)CN1C(=O)/C(=C/c2cc(Cl)c(O)c(Cl)c2)SC1=S [AT50-A03, (Z)-3-hydroxycarbonylmethyl-5-(3′,5′-dichloro-4′-hydroxyphenylmethylidene)-2-thioxothiazolidin-4-one]
Fibril Formation (%) ([1]; WT-TTR 3.6 μM, 1:1 TTR-compound stoichiometry, 37° C., normalized to no-compound control (100%)): 10%
IC50 ([1]; WT-TTR fixed at 3.6 μM, ten compound concentrations): 1170 ± 30 nM
Fibril Formation (%) ([2]; V122I-TTR 3.6 μM, 37° C.): 19%
IC50 ([2]; V122I-TTR fixed at 3.6 μM, ten compound concentrations): 1610 nM
IC50 at 72 h [3]: > 400000 nM
melting point: 262 to 264 °C

O=C(O)c1cc(-c2ccc(F)cc2F)cc(I)c1O [iododiflunisal]
brain Abeta levels and deposition, cognitive function [4]: decreased brain Abeta levels and deposition

CNC[C@H](O)[C@@H](O)[C@H](O)[C@H](O)CO.O=C(O)c1ccc2nc(-c3cc(Cl)cc(Cl)c3)oc2c1 [Tafamidis meglumine, N-methyl D-(2,3,4,5,6-pentahydroxy-hexyl)-ammonium; 2-(3,5-dichloro-phenyl)-benzoxazole-6-carboxylate]
FAP patients with improvement of symptoms [5]: approximately 60%
